From US20070202138A1, “ANTIMICROBIAL COMPOSITIONS AND METHOD” (BIOFILM INNOVATIONS GROUP, LLC, priority 2006, published 2007)
Values after ≈ are worked out from the molar mass of the structure shown.

Tests used:
in vitro = settings: mouse
Procedure: (§1) The cells are grown in humidified incubators at 37° C. in an atmosphere of 5% carbon dioxide/air (v/v).

[1] = in vitro cytotoxicity, plating efficiency; settings: mouse
Procedure: as §1

Row | Structure (SMILES) | CC50 (in vitro) [µg/mL] | CC50 [1] [µg/mL]
1 | CC(=O)Nc1ccc(O)cc1 [acetaminophen] | 1000 (≈ 6.62 mM) | –
2 | CC(=O)Oc1ccccc1C(=O)O [aspirin] | 1500 (≈ 8.33 mM) | –
3 | O=BOB(O)OB(O)OB=O [borax] | – | 2000 (≈ 12.7 mM)
